Measured values published in patent publication US20120270237A9, “METHODS FOR THE IDENTIFICATION OF KINASE INTERACTING MOLECULES AND FOR THE PURIFICATION OF KINASE PROTEINS” (Cellzone AG, priority 2009, published 2012).

How the values were obtained:
Experiment in all cases: Kinobeads competition binding, HeLa Placenta lysate mix
Parameters in all cases: endogenous in cells
Details in all cases: 10 μM free compound
AMPKa1 = AMPKa1 (Homo sapiens, UniProt Q13131)
In short: (§1)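 Free compound (10 μM) was allowed to bind lysate proteins before affinity beads bearing immobilized compound were added. Bound material, together with that from a DMSO control, was digested and measured by iTRAQ LC-MS/MS.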

BCR = BCR (Homo sapiens, UniProt P11274)
Sequence of BCR (P11274 whole entry): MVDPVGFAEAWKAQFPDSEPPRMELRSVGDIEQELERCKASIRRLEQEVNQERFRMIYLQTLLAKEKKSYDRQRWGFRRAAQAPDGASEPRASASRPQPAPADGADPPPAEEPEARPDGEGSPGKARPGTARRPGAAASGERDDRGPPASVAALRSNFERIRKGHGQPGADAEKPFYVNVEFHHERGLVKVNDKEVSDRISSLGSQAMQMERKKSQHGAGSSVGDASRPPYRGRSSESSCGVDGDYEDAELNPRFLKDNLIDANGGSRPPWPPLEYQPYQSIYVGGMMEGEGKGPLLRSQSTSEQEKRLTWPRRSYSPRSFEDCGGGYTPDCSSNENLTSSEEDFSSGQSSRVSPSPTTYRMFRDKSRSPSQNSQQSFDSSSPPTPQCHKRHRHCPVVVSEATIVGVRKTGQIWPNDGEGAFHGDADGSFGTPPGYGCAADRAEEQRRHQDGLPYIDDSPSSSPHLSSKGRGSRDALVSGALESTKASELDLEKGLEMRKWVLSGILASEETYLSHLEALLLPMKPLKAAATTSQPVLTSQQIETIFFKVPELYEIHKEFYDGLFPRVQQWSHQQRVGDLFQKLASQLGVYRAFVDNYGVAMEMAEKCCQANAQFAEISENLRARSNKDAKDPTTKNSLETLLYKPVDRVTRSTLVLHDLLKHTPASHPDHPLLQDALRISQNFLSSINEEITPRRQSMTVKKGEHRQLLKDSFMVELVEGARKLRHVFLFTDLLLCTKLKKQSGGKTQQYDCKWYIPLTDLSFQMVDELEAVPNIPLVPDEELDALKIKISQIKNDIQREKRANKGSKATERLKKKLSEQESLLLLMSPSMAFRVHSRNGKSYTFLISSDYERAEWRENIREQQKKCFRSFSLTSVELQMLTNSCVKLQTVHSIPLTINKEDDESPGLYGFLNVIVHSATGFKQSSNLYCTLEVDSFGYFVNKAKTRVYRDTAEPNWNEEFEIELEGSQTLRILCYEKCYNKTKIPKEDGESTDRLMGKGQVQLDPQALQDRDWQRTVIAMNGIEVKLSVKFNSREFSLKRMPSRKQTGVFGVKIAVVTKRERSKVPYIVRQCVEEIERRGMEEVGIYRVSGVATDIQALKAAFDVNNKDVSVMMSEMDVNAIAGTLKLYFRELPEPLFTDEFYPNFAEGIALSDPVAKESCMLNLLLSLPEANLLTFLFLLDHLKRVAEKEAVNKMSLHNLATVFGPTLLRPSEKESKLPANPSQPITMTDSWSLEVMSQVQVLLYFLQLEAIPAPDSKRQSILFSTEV
In short: as §1

CaMK2g = CaMK2g (Homo sapiens, UniProt Q13555)
Sequence of CaMK2g (Q13555 whole entry): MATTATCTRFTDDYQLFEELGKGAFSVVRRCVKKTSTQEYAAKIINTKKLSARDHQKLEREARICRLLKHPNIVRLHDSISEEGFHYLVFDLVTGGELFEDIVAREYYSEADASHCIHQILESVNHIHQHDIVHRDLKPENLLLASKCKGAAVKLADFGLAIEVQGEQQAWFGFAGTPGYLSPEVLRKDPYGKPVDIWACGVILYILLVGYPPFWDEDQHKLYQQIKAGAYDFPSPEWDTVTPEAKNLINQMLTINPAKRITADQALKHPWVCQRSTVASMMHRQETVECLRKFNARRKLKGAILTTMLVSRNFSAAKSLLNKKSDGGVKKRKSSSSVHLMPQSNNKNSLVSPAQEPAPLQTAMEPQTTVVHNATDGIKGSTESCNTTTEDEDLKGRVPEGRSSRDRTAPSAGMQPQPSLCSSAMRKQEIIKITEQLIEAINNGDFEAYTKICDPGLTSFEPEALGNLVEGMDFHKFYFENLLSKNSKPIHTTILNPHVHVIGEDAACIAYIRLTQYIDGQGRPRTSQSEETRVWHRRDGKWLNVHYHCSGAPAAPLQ
In short: as §1

IRAK4 = molecular target: T1, IRAK4 (Homo sapiens, UniProt Q9NWZ3)
T1 sequence (Q9NWZ3 1-460): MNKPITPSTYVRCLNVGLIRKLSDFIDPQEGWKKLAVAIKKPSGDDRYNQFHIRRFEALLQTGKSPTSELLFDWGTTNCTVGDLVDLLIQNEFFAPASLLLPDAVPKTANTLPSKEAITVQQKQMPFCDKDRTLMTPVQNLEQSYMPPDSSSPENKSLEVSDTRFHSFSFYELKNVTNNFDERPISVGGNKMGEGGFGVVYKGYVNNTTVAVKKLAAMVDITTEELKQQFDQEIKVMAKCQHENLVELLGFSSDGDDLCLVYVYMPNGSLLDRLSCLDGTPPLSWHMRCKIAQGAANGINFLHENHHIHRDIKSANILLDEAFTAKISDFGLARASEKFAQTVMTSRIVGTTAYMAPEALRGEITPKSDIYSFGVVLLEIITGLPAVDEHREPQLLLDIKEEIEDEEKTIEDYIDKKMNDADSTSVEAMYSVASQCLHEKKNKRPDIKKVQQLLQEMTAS
In short: as §1

MAP3K4 = MAP3K4 (Homo sapiens, UniProt Q9Y6R4)
Sequence of MAP3K4 (Q9Y6R4 whole entry): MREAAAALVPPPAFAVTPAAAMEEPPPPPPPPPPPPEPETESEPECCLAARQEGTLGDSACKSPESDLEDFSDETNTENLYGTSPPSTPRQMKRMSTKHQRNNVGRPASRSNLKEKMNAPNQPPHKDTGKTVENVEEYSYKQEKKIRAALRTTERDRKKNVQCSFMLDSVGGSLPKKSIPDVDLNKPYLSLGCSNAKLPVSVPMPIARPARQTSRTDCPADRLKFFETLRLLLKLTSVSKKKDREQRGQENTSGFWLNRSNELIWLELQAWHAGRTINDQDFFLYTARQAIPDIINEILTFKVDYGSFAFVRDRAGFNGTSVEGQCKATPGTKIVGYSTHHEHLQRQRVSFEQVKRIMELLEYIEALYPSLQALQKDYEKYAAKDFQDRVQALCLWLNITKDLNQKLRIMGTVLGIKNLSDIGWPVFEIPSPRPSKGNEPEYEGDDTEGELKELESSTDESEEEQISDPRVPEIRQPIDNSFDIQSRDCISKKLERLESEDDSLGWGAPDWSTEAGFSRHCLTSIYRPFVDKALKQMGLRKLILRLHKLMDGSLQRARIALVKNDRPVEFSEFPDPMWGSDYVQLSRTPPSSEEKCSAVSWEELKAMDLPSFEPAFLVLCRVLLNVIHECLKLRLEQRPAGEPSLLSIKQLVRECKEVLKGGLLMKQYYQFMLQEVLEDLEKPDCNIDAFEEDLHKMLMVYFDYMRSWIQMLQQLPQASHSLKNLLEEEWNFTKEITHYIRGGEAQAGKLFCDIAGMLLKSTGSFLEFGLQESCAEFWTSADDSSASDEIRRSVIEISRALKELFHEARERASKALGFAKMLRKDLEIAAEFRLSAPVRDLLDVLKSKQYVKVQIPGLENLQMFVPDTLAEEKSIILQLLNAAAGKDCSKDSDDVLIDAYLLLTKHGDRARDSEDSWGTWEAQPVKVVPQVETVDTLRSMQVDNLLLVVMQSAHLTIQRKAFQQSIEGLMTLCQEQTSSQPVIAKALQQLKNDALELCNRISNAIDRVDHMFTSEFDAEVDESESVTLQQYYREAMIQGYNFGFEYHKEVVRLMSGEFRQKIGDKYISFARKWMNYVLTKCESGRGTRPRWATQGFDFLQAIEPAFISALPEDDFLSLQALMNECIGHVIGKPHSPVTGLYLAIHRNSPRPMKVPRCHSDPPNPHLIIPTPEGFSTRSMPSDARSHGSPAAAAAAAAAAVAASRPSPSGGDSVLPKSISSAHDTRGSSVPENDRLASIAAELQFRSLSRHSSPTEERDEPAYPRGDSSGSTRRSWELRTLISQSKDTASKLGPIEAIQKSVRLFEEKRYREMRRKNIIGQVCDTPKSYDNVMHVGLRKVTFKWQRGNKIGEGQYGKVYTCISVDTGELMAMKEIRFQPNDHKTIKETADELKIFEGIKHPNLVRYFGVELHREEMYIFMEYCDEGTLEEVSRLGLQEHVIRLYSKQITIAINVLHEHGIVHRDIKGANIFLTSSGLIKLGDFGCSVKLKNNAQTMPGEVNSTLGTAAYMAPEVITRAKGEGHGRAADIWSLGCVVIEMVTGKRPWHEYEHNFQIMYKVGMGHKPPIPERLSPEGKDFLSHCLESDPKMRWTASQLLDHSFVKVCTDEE
In short: as §1

MARK2 = MARK2 (Homo sapiens, UniProt Q7KZI7)
Sequence of MARK2 (Q7KZI7 whole entry): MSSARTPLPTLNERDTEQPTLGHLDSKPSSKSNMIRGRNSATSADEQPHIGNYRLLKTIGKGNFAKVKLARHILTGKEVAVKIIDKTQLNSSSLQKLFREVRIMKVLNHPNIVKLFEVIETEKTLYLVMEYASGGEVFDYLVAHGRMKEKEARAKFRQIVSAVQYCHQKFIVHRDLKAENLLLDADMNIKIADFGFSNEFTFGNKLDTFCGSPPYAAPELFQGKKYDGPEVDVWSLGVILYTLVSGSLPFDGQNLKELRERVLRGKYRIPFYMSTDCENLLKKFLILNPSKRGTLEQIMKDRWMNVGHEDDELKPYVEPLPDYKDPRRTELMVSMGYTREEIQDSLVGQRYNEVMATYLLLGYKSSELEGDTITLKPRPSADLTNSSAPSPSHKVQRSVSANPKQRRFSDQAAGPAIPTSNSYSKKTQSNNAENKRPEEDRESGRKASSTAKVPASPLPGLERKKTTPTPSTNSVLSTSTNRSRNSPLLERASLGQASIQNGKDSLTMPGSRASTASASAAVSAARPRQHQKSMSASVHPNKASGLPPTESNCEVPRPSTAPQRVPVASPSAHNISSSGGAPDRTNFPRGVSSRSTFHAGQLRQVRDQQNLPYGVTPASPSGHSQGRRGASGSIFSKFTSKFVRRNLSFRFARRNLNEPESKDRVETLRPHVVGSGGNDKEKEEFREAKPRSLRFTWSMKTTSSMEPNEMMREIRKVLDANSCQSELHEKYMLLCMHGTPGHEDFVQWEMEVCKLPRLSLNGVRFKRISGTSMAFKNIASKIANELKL
In short: as §1

PIP5K2A = molecular target: T2, PIP5K2A (Homo sapiens, UniProt P48426)
T2 sequence (P48426 1-406): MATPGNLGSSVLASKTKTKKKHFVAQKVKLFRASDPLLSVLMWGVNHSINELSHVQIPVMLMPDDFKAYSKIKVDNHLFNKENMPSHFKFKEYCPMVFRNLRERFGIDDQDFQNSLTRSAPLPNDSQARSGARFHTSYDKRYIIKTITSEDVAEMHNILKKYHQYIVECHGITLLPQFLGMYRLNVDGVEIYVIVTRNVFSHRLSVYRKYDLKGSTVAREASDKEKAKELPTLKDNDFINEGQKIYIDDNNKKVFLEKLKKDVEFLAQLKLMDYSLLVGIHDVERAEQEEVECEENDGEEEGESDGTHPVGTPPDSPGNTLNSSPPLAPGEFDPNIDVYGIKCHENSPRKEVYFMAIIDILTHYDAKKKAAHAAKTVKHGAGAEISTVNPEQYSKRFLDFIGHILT
In short: as §1

RIPK2 = RIPK2 (Homo sapiens, UniProt O43353)
Sequence of RIPK2 (O43353 whole entry): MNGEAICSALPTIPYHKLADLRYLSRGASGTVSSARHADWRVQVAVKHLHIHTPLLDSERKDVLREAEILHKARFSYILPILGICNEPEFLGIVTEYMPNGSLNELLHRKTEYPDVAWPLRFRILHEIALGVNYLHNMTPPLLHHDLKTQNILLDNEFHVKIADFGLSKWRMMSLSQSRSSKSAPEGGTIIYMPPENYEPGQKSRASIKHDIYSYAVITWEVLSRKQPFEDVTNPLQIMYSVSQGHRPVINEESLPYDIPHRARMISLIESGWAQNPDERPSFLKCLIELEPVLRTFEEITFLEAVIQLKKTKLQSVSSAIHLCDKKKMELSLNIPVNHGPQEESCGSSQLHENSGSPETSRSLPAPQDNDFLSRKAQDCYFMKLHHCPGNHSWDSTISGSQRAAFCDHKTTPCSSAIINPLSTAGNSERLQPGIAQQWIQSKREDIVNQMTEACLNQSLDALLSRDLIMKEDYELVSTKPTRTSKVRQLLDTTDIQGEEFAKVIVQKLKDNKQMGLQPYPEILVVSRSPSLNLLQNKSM
In short: as §1

TAO3 = molecular target: T3, TAO3 (Homo sapiens, UniProt Q9H2K8)
T3 sequence (Q9H2K8 1-898): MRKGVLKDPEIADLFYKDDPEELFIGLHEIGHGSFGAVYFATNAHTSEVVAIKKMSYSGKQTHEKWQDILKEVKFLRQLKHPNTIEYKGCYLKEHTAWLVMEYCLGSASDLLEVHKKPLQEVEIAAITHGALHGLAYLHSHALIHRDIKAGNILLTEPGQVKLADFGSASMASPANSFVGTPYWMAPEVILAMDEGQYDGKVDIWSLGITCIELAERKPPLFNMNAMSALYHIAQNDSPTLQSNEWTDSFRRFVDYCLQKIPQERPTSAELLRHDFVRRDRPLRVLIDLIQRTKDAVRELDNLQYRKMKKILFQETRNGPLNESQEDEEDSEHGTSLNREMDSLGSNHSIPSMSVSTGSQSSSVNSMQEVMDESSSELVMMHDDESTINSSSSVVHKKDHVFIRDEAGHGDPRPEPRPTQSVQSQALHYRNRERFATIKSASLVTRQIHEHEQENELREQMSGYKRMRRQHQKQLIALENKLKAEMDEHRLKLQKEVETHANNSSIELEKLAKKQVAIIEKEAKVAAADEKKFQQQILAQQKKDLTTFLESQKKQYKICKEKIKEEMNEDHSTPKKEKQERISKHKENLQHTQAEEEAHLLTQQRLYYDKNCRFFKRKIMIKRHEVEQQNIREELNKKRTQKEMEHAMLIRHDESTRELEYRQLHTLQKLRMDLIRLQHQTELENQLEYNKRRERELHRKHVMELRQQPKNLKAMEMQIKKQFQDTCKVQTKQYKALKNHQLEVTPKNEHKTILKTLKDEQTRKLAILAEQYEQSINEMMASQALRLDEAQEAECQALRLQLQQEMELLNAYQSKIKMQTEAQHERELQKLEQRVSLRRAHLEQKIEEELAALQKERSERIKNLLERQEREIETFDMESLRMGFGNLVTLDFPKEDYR
In short: as §1

inhibition at 10 µM (AMPKa1): 94.9%
inhibition at 10 µM (BCR): 90.2%
inhibition at 10 µM (CaMK2g): 84.8%
Competition % (IRAK4): 93.8%
inhibition at 10 µM (MAP3K4): 92.2%
inhibition at 10 µM (MARK2): 93.7%
inhibition at 10 µM (PIP5K2A): 95%
inhibition at 10 µM (RIPK2): 92.2%
inhibition at 10 µM (TAO3): 94.4%
Compound: CS(=O)(=O)Nc1ccccc1Nc1nc(Nc2cccc(OCCN)c2)ncc1Cl [CZC31326, N-(2-(2-(3-(2-aminoethoxy)phenylamino)-5-chloropyrimidin-4-ylamino)phenyl)methanesulfonamide]
